Values of other authors as cited in patent US6379705B1, “Stable multi-unitary pharmaceutical preparations containing substituted benzimidazoles” (Laboratorio Mendifar-Produtos Farmaceuticos, S.A., priority 1999, dated 2002).

pH of maximum stability of solutions (omeprazole solutions): 11
degradation in solution (pHs lower than 7.8): very quickly
SMILES: COc1ccc2[nH]c([S+]([O-])Cc3ncc(C)c(OC)c3C)nc2c1 (centres unmarked) [omeprazole]
